Data taken from patent publication US20250134902A1, “DRUG REPURPOSING FOR DELAYED TREATMENT OF ISCHEMIC STROKE” (UNIVESRITY OF NORTH TEXAS HEALTH SCIENCE CENTER, priority 2022, published 2025).
Entries after “also recorded” stand apart in the source; their conditions may differ.

Experiments:
[1] = Maximum tolerated dose, oral gavage 10 days; format: in vivo
Description: Measuring the maximum tolerated dose of Sigma receptor agonists. Male Sprague-Dawley rats (2-3 per dose) were treated by oral gavage with 6, 18, 54, 108, 135 or 150 mg/kg as estimated from in vitro functional assays and estimates of human intake when used as an antitussive. Rats received a single daily dose for 10 days. Weight, water intake, and food intake were measured daily, and rats were assessed for somnolence, activity, sensitivity to touch, and taste aversion. At the conclusion of the study, rats were humanely euthanized and brain tissue was collected and flash frozen.

rat blood = test: Clotting (streak) assay of thrombotic potential
Description: Clotting assays. Thrombotic potential was assessed with trunk blood from donor rats using a protocol modified from Kim et al. (Kim et al., 2010). Oxeladin was compared to whole blood with or without the anticoagulant benzamidine and several other S1R ligands at doses 10× greater than those that stimulate the release of BDNF (Dalwadi et al., 2022; Dalwadi et al., 2017). Blood was rapidly collected into chilled, pre-weighed plastic tubes containing a known quality of EDTA disodium salt (>3.7 mM) electrostatically-coated onto the tube wall. Blood was prevented from coagulating by gently swirling the chilled EDTA-coated tube. The tube was weighed and the volume of collected blood calculated in order to compute the exact concentration of EDTA in the uncoagulated blood sample allowing us to determine which concentration of calcium to add back into the blood to initiate coagulation. Uncoagulated blood samples were stored chilled. The following was be dispensed into NUNC™ MICROWELL™ MiniTrays: 8 μL/well of normal saline containing a concentration of calcium 1.2 mM higher than that of the concentration of EDTA in the blood sample, 1 μL/well of oxeladin, 3 mM benzamidine anticoagulant positive control, or untreated or vehicle negative controls, and 1 μL/well of (EDTA-treated) uncoagulated rat blood. Plates were tilted at a 45° angle at 5, 15, 30, 45 and 60 minutes to observe coagulation (i.e., no streaking) and compared to the controls. Each triplicate well was scored by a treatment-blinded observer as Yes (coagulation, no streaking) or No (no coagulation, streaking). The experiment was repeated with two separate donor rats.
Referring to FIG. 5, the effect on thrombotic activity of test drugs, benzamidine anticoagulant positive control, or untreated or vehicle negative controls on whole blood from donor rats was assessed by tilting treated blood samples at a […] to observe coagulation (i.e., no streaking) between […] (top panel). Blood coagulation was represented by a value between 1 (no streaking, coagulation) and 0 (streaking, less or no coagulation), and values were assigned for each test drug, benzamidine, and untreated and vehicle controls (bottom panel). Quantitative results from these clotting assays, including coagulation half-life, are summarized below in Table 5.

[2] = test system: rat model of focal cerebral ischemia (tMCAO); test: Neurological function after transient middle cerebral artery occlusion (Bederson, NDS, EBST); format: in vivo; settings: for Neurological Deficit Score (NDS), Dunn's test: 135 mg/kg/d p.o.
Description: Evaluating the effect of Sigma receptor agonists in a rat model of focal cerebral ischemia. Rats were anesthetized with 5% isoflurane in oxygen and maintained at ˜2% through a nosecone. Core temperature was maintained with an infrared heating pad controlled by a rectal probe. Transient middle cerebral artery occlusion (tMCAO) was performed as previously described (Oppong-Gyebi et al., 2022). Briefly, a midline incision was made from the neck to the sternum. The left common carotid artery and bifurcation was mobilized, and a silicon-coated suture (Doccol, Sharon MA) was inserted through the external carotid artery into the internal carotid artery to reach the origin of the MCA at the base of the brain. The incision was closed, and rats were allowed to awaken so that successful occlusion could be assessed. Rats not displaying hemiparesis immediately post-surgery were excluded from the study. After 85-90 minutes occlusion, rats were anesthetized, and the suture was withdrawn to allow reperfusion. Rats were injected subcutaneously with 5 ml saline bilaterally to provide hydration during recovery. On the day following tMCAO, rats were assessed for persistent signs of stroke.
Only rats displaying hemiparesis immediately post-surgery were included in the study. Rats with a Bederson score of 0 or <50% contralateral bias on the elevated body swing test (EBST) (Borlongan and Sanberg, 1995) on Day 1 after tMCAO were excluded from the study. Animals that became moribund or died within 24 hours of tMCAO were excluded from the study.
Two days before tMCAO rats were trained to lick 5% sucrose from a 1 ml syringe. After behavioral assessment on Day 1 after tMCAO, rats were randomly assigned to 4 groups in a blinded fashion. Groups included sucrose Vehicle, or 45, 68 or 135 mg/kg oxeladin. Oxeladin was prepared in 5% sucrose and provided to rats from the end of a 1 ml syringe. Starting 48 hours after stroke, rats were administered treatments daily from day 3 to day 14. On days 3-14 rats were injected i.p. with 50 mg/kg bromodeoxyuridine (BrdU; Fisher Bioreagents). At the conclusion of the study, rats were euthanized under deep isoflurane anesthesia. Rats were transcardially perfused with cold saline and either decapitated for brain collection and flash freezing of brain tissue or transcardially perfused with 4% formaldehyde for immunohistochemical studies.
On days 1, 3, 7, and 14 after tMCAO, rats underwent a series of behavioral tests by a treatment blinded observer. All tests were performed in a room dimly lit with red light. Rats were assessed by the Bederson test (Bederson et al., 1986), and an 11-point Neurological Deficit test as previously described (Oppong-Gyebi et al., 2022). The elevated body swing test (EBST) was performed in an open field with 30 seconds between each of 20 lifts by the base of the tail (Borlongan and Sanberg, 1995). The EBST was scored as percent of nose swing to the contralateral side to the tMCAO.
The observer scored the rats using the Bederson test, which evaluates global neurological function and grades rodents on a scale of 0-5. Grade 0 (no defects) is assigned if animals extend both forelimbs toward the floor when suspended above the floor. Grade 1 (mild defects) is given when animals show forelimb flexion without any other abnormality. Grade 2 (modest defects) is given when animals display forelimb flexion and decreased resistance to lateral push toward the paretic side. Animals further showing circling behavior are scored Grade 3 (severe defects).
The observer also scored the rats using the Elevated Body Swing Test (EBST) in which rats lifted by the tail and held vertically swing their heads to the left or to the right. Whereas healthy animals on a group level are likely to swing approximately 50% to either side, animals with a unilateral cerebral lesion, e.g. ischemic stroke, should present with a dominant/biased swing direction.

BDNF = test: Steady-state BDNF in brain homogenates by ELISA (rats of the maximum tolerated dose study); format: in vivo, rat; settings: 135 mg/kg p.o., ten days
Description: Actions of oxeladin on BDNF in the brain. […] Cerebral cortex and hippocampal samples were homogenized in TBS supplemented with 0.1% NP-40 detergent and protease inhibitor cocktail. Protein concentrations were determined with a PIERCE® BCA assay (ThermoPierce). Samples were diluted 1:20 and assayed in triplicate according to manufacturer's instructions and assayed a FLEXSTATION® 3 plate reader (Molecular Devices, Sunnyvale, CA).

[3] = 68 mg/kg/d p.o. starting 48 hours after tMCAO, days 7 and 14

## CCN(CC)CCOCCOC(=O)C(CC)(CC)c1ccccc1 [Oxeladin]
[1]; 6-150 mg/kg daily oral gavage, 10 days, male rats
  mortality or overt toxicity: no mortality or overt toxicity observed
[1]; rat, in vivo, po
  well-tolerated dose: ≥ 150 mg/kg
Rat blood
  effect on thrombosis in blood: do not alter thrombosis
[2]; [3]
  Bederson score vs Vehicle: significantly improved
  Elevated Body Swing Test (EBST) vs Vehicle: significantly improved
[2]; 135 mg/kg/d p.o. starting 48 hours after tMCAO, days 3, 7 and 14
  Bederson score vs Vehicle: significant improvements; also recorded: significantly improved
[2]; 135 mg/kg/d p.o. starting 48 hours after tMCAO, days 3 and 7
  Neurological Deficit Score (NDS) vs Vehicle: significantly improved
[2]; 135 mg/kg/d p.o. starting 48 hours after tMCAO, days 7 and 14
  Elevated Body Swing Test (EBST) vs Vehicle: not 135 mg/kg showed improvement
[2]; day 3 (P=0.072)
  Neurological Deficit Score (NDS), Dunn's test: trend for improvement
[2]; day 7 (P=0.028)
  Neurological Deficit Score (NDS), Dunn's test: significant improvements
[2]; overall conclusion, p.o. dosing
  functional recovery after tMCAO: improves functional recovery
BDNF
  BDNF levels in the hippocampus (ELISA): not in the hippocampus
BDNF; P<0.05
  BDNF levels in the cerebral cortex (ELISA): significant increase; also recorded: significantly increase
